Data set [1] concerns hCoV-19/Norway/Trondheim-E9/2020. Nature of the data set: Drug test: viability of SARS-CoV-2-infected Vero-E6 cells (CellTiter-Glo). More on the design: AUC: unit not given beside the values. The data set is classed as cell-based.
A short description of data set [2]: Drug combination test, mock-infected Vero-E6 cells (CTG). It counts as cell-based. To be noted: African green monkey, mock-infected Vero-E6 cells (control), read-out: Relative viability (%); for viability at 72 h, 0.008 uM: single drug 0.008 uM (other drug 0); for viability at 72 h, 0.04 uM: single drug 0.04 uM (other drug 0); for viability at 72 h, 0.2 uM: single drug 0.2 uM (other drug 0); for viability at 72 h, 1 uM: single drug 1.0 uM (other drug 0); for viability at 72 h, 5 uM: single drug 5.0 uM (other drug 0).

The subject of data set [3] is viral genomic and sub-genomic RNAs. Description: Gene expression analysis (RNA sequencing) of drug-treated infected Vero-E6 cells. It counts as cell-based, SARS-CoV-2. To be noted: moi 0.1, 24 h, 3 M nelfinavir, 5 M amodiaquine or both.
Data set [4] is described as follows: Cytotoxicity in mock-infected Vero-E6 cells (CellTiter-Glo). The settings on record: African green monkey.
[5] abbreviates: Severe acute respiratory syndrome coronavirus 2, Vero C1008, infected Vero-E6 cells, moi 0.1, 72 h, Mean ± SD, n = 3.
[6] abbreviates: Severe acute respiratory syndrome coronavirus 2, Vero C1008, 72 h.
The mark [7] stands for this setting: area under the dose-response curve of viability of virus-infected Vero-E6 cells, moi 0.1, 72 h, 7 concentrations, decimal comma.

Consider `CCN(CC)Cc1cc(Nc2ccnc3cc(Cl)ccc23)ccc1O` [Amodiaquine], for which the EC50 in data set [1] (setting [5]) amounted to 4200 ± 200 nM. Further, in data set [2], the viability at 72 h, 0.008 uM was determined as 89.1%; the viability at 72 h, 0.04 uM is 91.8%; the viability at 72 h, 0.2 uM stood at 76.4%; the viability at 72 h, 1 uM came out at 76.6%. The viability at 72 h, 5 uM in data set [2] is 71.5%. Besides, the “transcription of viral genomic and sub-genomic RNAs” value in data set [3] is “lowered the transcription of viral genomic and sub-genomic RNAs”. Also, the CC50 at 72 h in data set [4] (mock-infected Vero-E6 cells) was > 30000 nM.

With `CC[C@@H](C(=O)[C@@H](C)[C@@H](O)[C@H](C)[C@@H]1O[C@@H]([C@@H](CC)C(=O)O)CC[C@@H]1C)[C@H]1O[C@]2(C=C[C@@H](O)[C@]3(CC[C@@](C)([C@H]4CC[C@](O)(CC)[C@H](C)O4)O3)O2)[C@H](C)C[C@@H]1C` [Salinomycin], a half-maximal response in data set [1] (setting [6]) (EC50) required 200 ± 100 nM. In data set [4], this compound yielded a 50% cytotoxic concentration (CC50) at 72 h of 13900 ± 300 nM.

With `CC[C@H]1CN2CCc3cc(OC)c(OC)cc3[C@@H]2C[C@@H]1C[C@H]1NCCc2cc(OC)c(OC)cc21` [Emetine], in data set [1] (setting [6]), the concentration for a half-maximal effect (EC50) is < 10 nM. The CC50 at 72 h in data set [4] came to 700 ± 400 nM.

`COC(=O)C[C@](O)(CCCC(C)(C)O)C(=O)O[C@@H]1C(OC)=C[C@]23CCCN2CCc2cc4c(cc2[C@H]13)OCO4` [Homoharringtonine] registered a concentration giving a half-maximal response (EC50) in data set [1] (setting [5]) of 30 ± 20 nM. Moreover, the CC50 at 72 h in data set [4] (mock-infected Vero-E6 cells) is 360 ± 600 nM.

`COC1=CC(c2cc3ccccc3[nH]2)=N/C1=C\c1[nH]c(C)cc1C` [Obatoclax (Mesylate), Obatoclax] came in with an EC50 in data set [1] (setting [5]) of 300 ± 100 nM. The CC50 at 72 h in data set [4] (mock-infected Vero-E6 cells) was 2200 ± 1000 nM.

`Cc1c(O)cccc1C(=O)N[C@@H](CSc1ccccc1)[C@H](O)CN1C[C@H]2CCCC[C@H]2C[C@H]1C(=O)NC(C)(C)C` [Nelfinavir] gave an EC50 in data set [1] (setting [5]) of 2100 ± 600 nM. Further, in data set [2], the viability at 72 h, 0.008 uM was found to be 100%; the viability at 72 h, 0.04 uM was 100%; the viability at 72 h, 0.2 uM was 96.5%; the viability at 72 h, 1 uM was determined as 90.2%. Besides, the viability at 72 h, 5 uM in data set [2] was found to be 80.7%. The compound also had a CC50 at 72 h in data set [4] (mock-infected Vero-E6 cells) of 9700 ± 400 nM.

For the compound `CC(=O)O[C@H]1C[C@H](O[C@H]2[C@@H](O)C[C@H](O[C@H]3[C@@H](O)C[C@H](O[C@H]4CC[C@@]5(C)[C@H](CC[C@@H]6[C@@H]5C[C@@H](O)[C@]5(C)[C@@H](C7=CC(=O)OC7)CC[C@]65O)C4)O[C@@H]3C)O[C@@H]2C)O[C@H](C)[C@H]1O[C@@H]1O[C@H](CO)[C@@H](O)[C@H](O)[C@H]1O` [Lanatoside C], in data set [1] (72 h), the AUC is 54,25.

For `CC12CC3CC(C)(C1)CC(N)(C3)C2` [Memantine], the AUC in data set [1] (setting [7]) is listed as 115,78.

As to Doxycycline hyclate, in data set [1] (72 h), the AUC is 143,99.

As to `CCN(CCO)CCCC(C)Nc1ccnc2cc(Cl)ccc12` (stereo not drawn) [Hydroxychloroquine], the AUC in data set [1] (setting [7]) was 147,63.

For `CN(C)c1ccc(O)c2c1C[C@H]1C[C@H]3[C@H](N(C)C)C(O)=C(C(N)=O)C(=O)[C@@]3(O)C(O)=C1C2=O` [Minocycline], in data set [1] (setting [7]), the AUC was 119,14.

`CO[C@@H]1[C@@H](OC(N)=O)[C@@H](O)[C@H](Oc2ccc3c(O)c(NC(=O)c4ccc(O)c(CC=C(C)C)c4)c(=O)oc3c2C)OC1(C)C` [Novobiocin]: the AUC in data set [1] (setting [7]) is given as 100,73.

For the compound `COc1ccc2c(c1)c(CC(=O)O)c(C)n2C(=O)c1ccc(Cl)cc1` [Indomethacin], the AUC in data set [1] (setting [7]) is on record as 104,51.

`CC(C)C[C@H](NC(=O)[C@H](Cc1ccccc1)NC(=O)c1cnccn1)B(O)O` [Bortezomib (PS-341), Bortezomib]: the AUC in data set [1] (setting [7]) is listed as 68,67.

In the case of `O=C(O)[C@H]1C2CCC(CC2)[C@@H]1Nc1nc(-c2c[nH]c3ncc(F)cc23)ncc1F` [Pimodivir], the AUC in data set [1] (setting [7]) was 126,91.

For the compound `COc1ccc2nc([S@@+]([O-])Cc3ncc(C)c(OC)c3C)[nH]c2c1` [Esomeprazole], in data set [1] (setting [7]), the AUC is on record as 177,52.

Regarding `Cc1oncc1C(=O)Nc1ccc(C(F)(F)F)cc1` [Leflunomide], the AUC in data set [1] (setting [7]) is recorded as 47,95.

For the compound `CCN(CC)C[C@@H](O)CNc1ccc(NC[C@H]2CO2)c2c1C(=O)c1ccccc1C2=O` [BDA-366], the AUC in data set [1] (72 h) was 174,3.

On to `CS(=O)(=O)O.Cc1ccc2c(c1)c1c3n2CCNC3CCC1` (stereo not drawn) [Pirlindole mesylate], for which the AUC in data set [1] (72 h) is recorded as 120,4.

The values above are taken from publication PMC7354438 (Viruses, 2020).
